Experimental data reported in US7803801B2, “Aminopyridine compounds having Syk inhibitory activity” (Japan Tobacco, Inc., priority 2005, dated 2010).
Where a name gives a salt, the structure may show the parent alone. Read-outs that look alike come from different tables or passages of the source.

Tests used:
[1] = molecular target: GST-Syk Full Protein (human) (Homo sapiens, UniProt P43405); test: Syk kinase inhibition test (HTRF method); type: biochemical
How it was run: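 Human GST-Syk full-length (6.4 nM) phosphorylated biotin-EDPDYEWPSA-NH2 (250 nM) with 100 μM ATP in HEPES pH 7.0/MgCl2 buffer, 2% DMSO, 30 min at room temperature. EDTA stop, then HTRF detection (streptavidin-XL665, Eu anti-phosphotyrosine) after 1 h; 665/620 ratio read.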

[2] = tested on: cultured human mast cells; test: Degranulation inhibition test using cultured human mast cells (IgE cross-linking, β-Hexosaminidase release); type: cell-based; conditions: Mast cell, cultured human mast cells, read-out: human degranulation ave. IC50
How it was run: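 CD34+ cord-blood cells cultured ≥8 weeks with SCF/IL-6/IL-3; FcεRI primed 5 days with rhIL-4 (1 ng/mL) and hIgE (0.5 μg/mL). Compound (0.1% DMSO) preincubated 10 min at 37 °C, then anti-IgE (final 10 μg/mL) 30 min; released β-hexosaminidase read at 405 nm versus total lysate, IC50 (M).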

[3] = Tables 1-x, compounds A, read-out: sykHTRF ave IC50
[4] = HTRF, 100 μM ATP, 30 min room temperature, average, read-out: sykHTRF ave IC50
[5] = anti-hIgE stimulation, β-Hexosaminidase index, average
[6] = Tables 2-x, thiophene compounds B, read-out: sykHTRK ave IC50
[7] = Tables 2-x, thiophene compounds B

IC50 [1, 4]	IC50 [2, 5]	SMILES	further results
		Cc1ccnc(Nc2cccc(-c3cnc(N4CCC[C@@H](CC(=O)O)C4)s3)n2)c1 [Compound A-567, ((S)-1-{5-[6-(4-methylpyridin-2-ylamino)pyridin-2-yl]thiazol-2-yl}piperidin-3-yl)acetic acid]	IC50 [1, 3]: < 0.1 µM; IC50 ([2]; Tables 1-x, compounds A): 0.1 to 1 µM
0.1 to 1 µM	> 1 µM	COc1ccc(C[C@H](N)c2ncc(-c3cccc(Nc4cc(C)ccn4)n3)s2)cc1OC [Compound A-138]	
< 0.1 µM	0.1 to 1 µM	Cc1ccnc(Nc2cccc(-c3cnc([C@H]4CC[C@H](C(N)=O)CC4)s3)n2)c1 [Compound A-111, trans-4-{5-[6-(4-methylpyridin-2-ylamino)pyridin-2-yl]thiazol-2-yl}cyclohexanecarboxamide]	
		CO/N=C(\C)c1ccc(-c2cccc(Nc3cc(OC(C)C)ncn3)n2)s1 [Compound B-33]	IC50 [1, 6]: 0.1 to 1 µM; IC50 [2, 7]: > 1 µM
> 1 µM	> 1 µM	Cc1ccnc(Nc2cccc(-c3sc([C@H](C)NC(=O)CCC(=O)O)nc3C)n2)c1 [Compound A-116]	
		Cc1ccnc(Nc2cccc(-c3cnc(N4CCCC(C(N)=O)C4)s3)n2)c1 (stereo not drawn) [Compound A-476, 1-{5-[6-(4-methylpyridin-2-ylamino)pyridin-2-yl]thiazol-2-yl}piperidine-3-carboxamide]	IC50 [1, 3]: < 0.1 µM; IC50 ([2]; Tables 1-x, compounds A): < 0.1 µM
0.1 to 1 µM	0.1 to 1 µM	COC(=O)[C@H]1CC[C@H](c2ncc(-c3cccc(Nc4cc(Cl)ccn4)n3)s2)CC1 [Compound A-203]	
0.1 to 1 µM	> 1 µM	Cc1ccnc(Nc2cccc(-c3cnc([C@@H](N)Cc4ccc(OCc5ccccc5)cc4)s3)n2)c1 [Compound A-86]	
0.1 to 1 µM	0.1 to 1 µM	Cc1ccnc(Nc2cccc(-c3cnc([C@H](C)NC(=O)c4ccc(O)cc4)s3)n2)c1 [Compound A-347]	
		CC(=O)N[C@H]1CN(Cc2ncc(-c3cccc(Nc4cc(C)ccn4)n3)s2)C[C@@H]1O [Compound A-414]	IC50 [1, 3]: 0.1 to 1 µM; IC50 ([2]; Tables 1-x, compounds A): 0.1 to 1 µM
> 1 µM	> 1 µM	Cc1ccnc(Nc2cccc(-c3cnc([C@@H](NC(=O)OC(C)(C)C)C(C)C)s3)n2)c1 [Compound A-36]	
		Cc1ccnc(Nc2cccc(-c3cnc(N4CCC(c5noc(=O)[nH]5)CC4)s3)n2)c1 [Compound A-450, 3-(1-{5-[6-(4-methylpyridin-2-ylamino)pyridin-2-yl]thiazol-2-yl}piperidin-4-yl)-4H-[1,2,4]oxadiazole-5-one]	IC50 [1, 3]: < 0.1 µM; IC50 ([2]; Tables 1-x, compounds A): > 1 µM
0.1 to 1 µM	0.1 to 1 µM	CC(=O)OCC(=O)N[C@@H](C)c1ncc(-c2cccc(Nc3cc(C)ccn3)n2)s1 [Compound A-146]	
		Cc1ccnc(Nc2cccc(-c3cnc(CN4CCC[C@H]4CO)s3)n2)c1 [Compound A-379]	IC50 [1, 3]: 0.1 to 1 µM; IC50 ([2]; Tables 1-x, compounds A): 0.1 to 1 µM
0.1 to 1 µM	0.1 to 1 µM	Cc1ccnc(Nc2cccc(-c3cnc(CNC(=O)NCCO)s3)n2)c1 [Compound A-253]	
< 0.1 µM	> 1 µM	Cc1ccnc(Nc2cccc(-c3cnc(C4CCN(C(=O)CC(=O)O)CC4)s3)n2)c1 [Compound A-192, 3-(4-{5-[6-(4-methylpyridin-2-ylamino)pyridin-2-yl]thiazol-2-yl}piperidin-1-yl)-3-oxopropionic acid hydrochloride]	
0.1 to 1 µM	0.1 to 1 µM	CN[C@@H](C)c1ncc(-c2cccc(Nc3cc(C)ccn3)n2)s1 [Compound A-51]	
		CC(=O)c1ccc(-c2cccc(Nc3cc(Cl)ccn3)n2)s1 [Compound B-74, 1-{5-[6-(4-chloropyridin-2-ylamino)pyridin-2-yl]thiophen-2-yl}ethanone]	IC50 [1, 6]: < 0.1 µM; IC50 [2, 7]: 0.1 to 1 µM
< 0.1 µM	> 1 µM	Cc1ccnc(Nc2cccc(-c3cnc([C@H]4CC[C@H](C(=O)N5CCC(N)CC5)CC4)s3)n2)c1 [Compound A-290, (4-aminopiperidin-1-yl)-(trans-4-{5-[6-(4-methylpyridin-2-ylamino)pyridin-2-yl]thiazol-2-yl}cyclohexyl)methanone]	
		Cc1ccnc(Nc2cccc(-c3cnc(N(C)Cc4cccc(C(=O)O)c4)s3)n2)c1 [Compound A-586, 3-[(N-methyl-N-{5-[6-(4-methylpyridin-2-ylamino)pyridin-2-yl]thiazol-2-yl}amino)methyl]benzoic acid dihydrochloride]	IC50 [1, 3]: < 0.1 µM; IC50 ([2]; Tables 1-x, compounds A): > 1 µM
0.1 to 1 µM	> 1 µM	Cc1ccnc(Nc2cccc(-c3cnc([C@H]4CC[C@H](CN5CCC(O)CC5)CC4)s3)n2)c1 [Compound A-296]	

IC50 [1, 4]	IC50 [2, 5]	SMILES	further results
		CC(=O)c1ccc(-c2cccc(Nc3cc(C4=NC(C)(C)CO4)ccn3)n2)s1 [Compound B-87, 1-(5-{6-[4-(4,4-dimethyl-4,5-dihydrooxazol-2-yl)pyridin-2-ylamino]pyridin-2-yl}thiophen-2-yl)ethanone]	IC50 [1, 6]: < 0.1 µM; IC50 [2, 7]: 0.1 to 1 µM
0.1 to 1 µM	0.1 to 1 µM	Cc1ccnc(Nc2cccc(-c3cnc(C4CCN(C(=O)c5ccncc5)CC4)s3)n2)c1 [Compound A-306]	
0.1 to 1 µM	> 1 µM	Cc1ccnc(Nc2cccc(-c3cnc(CNCc4ccc(C(=O)O)cc4)s3)n2)c1 [Compound A-288]	
0.1 to 1 µM	> 1 µM	Cc1ccnc(Nc2cccc(-c3cnc(CCCCC(=O)NS(C)(=O)=O)s3)n2)c1 [Compound A-171]	
< 0.1 µM	> 1 µM	Cc1ccnc(Nc2cccc(-c3cnc([C@H]4CC[C@H](C(=O)N[C@H](CO)Cc5cnc[nH]5)CC4)s3)n2)c1 [Compound A-304, N—[(S)-2-hydroxy-1-(3H-imidazol-4-ylmethyl)ethyl]-trans-4-{5-[6-(4-methylpyridin-2-ylamino)pyridin-2-yl]thiazol-2-yl}cyclohexanecarboxamide]	
0.1 to 1 µM	0.1 to 1 µM	Cc1ccnc(Nc2cccc(-c3cnc([C@H](C)N)s3)n2)c1 [Compound A-9, N—((S)-1-{5-[6-(4-methylpyridin-2-ylamino)pyridin-2-yl]thiazol-2-yl}ethyl)amine]	
0.1 to 1 µM	> 1 µM	Cc1ccnc(Nc2cccc(-c3cnc(CN4CCC(C(=O)O)CC4)s3)n2)c1 [Compound A-168]	
< 0.1 µM	0.1 to 1 µM	CC(=O)N(C)[C@@H](C)c1ncc(-c2cccc(Nc3cc(C)ccn3)n2)s1 [Compound A-52, N-methyl-((S)-1-{5-[6-(4-methylpyridin-2-ylamino)pyridin-2-yl]thiazol-2-yl}ethyl)acetamide]	
0.1 to 1 µM	> 1 µM	Cc1ccnc(Nc2cccc(-c3cnc([C@@H](N)Cc4ccc(NC(=O)OCc5ccccc5)cc4)s3)n2)c1 [Compound A-177]	
< 0.1 µM	< 0.1 µM	NC(=O)[C@H]1CC[C@H](c2ncc(-c3cccc(Nc4cc(Cl)ccn4)n3)s2)CC1 [Compound A-338, trans-4-{5-[6-(4-chloropyridin-2-ylamino)pyridin-2-yl]thiazol-2-yl}cyclohexanecarboxamide]	
0.1 to 1 µM	> 1 µM	Cc1ccnc(Nc2cccc(-c3cnc([C@@H](N)Cc4ccccc4)s3)n2)c1 [Compound A-40]	
		Cc1ccnc(Nc2cccc(-c3cnc(N4CCN(S(N)(=O)=O)CC4)s3)n2)c1 [Compound A-421, 4-{5-[6-(4-methylpyridin-2-ylamino)pyridin-2-yl]thiazol-2-yl}piperazine-1-sulfonamide]	IC50 [1, 3]: < 0.1 µM; IC50 ([2]; Tables 1-x, compounds A): 0.1 to 1 µM
		Cc1ccnc(Nc2cccc(-c3ccc(C(=O)N4CCOCC4)s3)n2)c1 [Compound B-81]	IC50 [1, 6]: 0.1 to 1 µM; IC50 [2, 7]: 0.1 to 1 µM
		Cc1ccnc(Nc2cccc(-c3cnc(N4CC[C@@H](NC(=O)CO)C4)s3)n2)c1 [Compound A-475, 2-hydroxy-N—((R)-1-{5-[6-(4-methylpyridin-2-ylamino)pyridin-2-yl]thiazol-2-yl}pyrrolidin-3-yl)acetamide]	IC50 [1, 3]: < 0.1 µM; IC50 ([2]; Tables 1-x, compounds A): 0.1 to 1 µM
		Cc1ccnc(Nc2cccc(-c3cnc(N(C)Cc4nc(C(=O)O)cs4)s3)n2)c1 [Compound A-609, 2-[(N-methyl-N-{5-[6-(4-methylpyridin-2-ylamino)pyridin-2-yl]thiazol-2-yl}amino)methyl]thiazole-4-carboxylic acid]	IC50 [1, 3]: < 0.1 µM; IC50 ([2]; Tables 1-x, compounds A): > 1 µM
0.1 to 1 µM	0.1 to 1 µM	CC(=O)N1CCC(c2ncc(-c3cccc(Nc4cc(C)ccn4)n3)s2)CC1 [Compound A-94]	
		Cc1ccnc(Nc2cccc(-c3cnc(N4CCCC(COCC(N)=O)C4)s3)n2)c1 (stereo not drawn) [Compound A-499, 2-(1-{5-[6-(4-methylpyridin-2-ylamino)pyridin-2-yl]thiazol-2-yl}piperidin-3-ylmethoxy)acetamide]	IC50 [1, 3]: < 0.1 µM; IC50 ([2]; Tables 1-x, compounds A): 0.1 to 1 µM
> 1 µM	> 1 µM	Cc1ccnc(Nc2cccc(-c3cnc(CCCCCNC(=O)OC(C)(C)C)s3)n2)c1 [Compound A-127]	
< 0.1 µM	0.1 to 1 µM	CC(=O)N[C@@H](C)c1ncc(-c2cccc(Nc3cc(Cl)ccn3)n2)s1 [Compound A-81, N—((S)-1-{5-[6-(4-chloropyridin-2-ylamino)pyridin-2-yl]thiazol-2-yl}ethyl)acetamide]	
		Cc1ccnc(Nc2cccc(-c3ccc(C(=O)NC(C)(C)CO)s3)n2)c1 [Compound B-72]	IC50 [1, 6]: 0.1 to 1 µM; IC50 [2, 7]: 0.1 to 1 µM
		Cc1ccnc(Nc2cccc(-c3cnc(N(C)[C@H]4CC[C@H](CC(=O)O)CC4)s3)n2)c1 [Compound A-610, [trans-4-(N-methyl-N-{5-[6-(4-methylpyridin-2-ylamino)pyridin-2-yl]thiazol-2-yl}amino)cyclohexyl]acetic acid]	IC50 [1, 3]: < 0.1 µM; IC50 ([2]; Tables 1-x, compounds A): 0.1 to 1 µM
